Results published in patent publication US20080207593A1, “Antihistamine Combination” (Collegium Pharmaceutical, Inc., priority 2007, published 2008).
Where a name gives a salt, the structure may show the parent alone.

Columns and labels:
[1] = system: seasonal allergic rhinitis nasal symptoms (rhinorrhea, nasal itching, sneezing); assay: Proof of concept clinical study: Total Nasal Symptom Score (TNSS); assay type: in vivo, human; conditions: TNSS > 4.7 subgroup
Description: An open-label, placebo-controlled parallel-group comparison study was conducted. The protocol used was a 1 week run-in period, with daily placebo (PLC) for all groups, and a second 2 week period for treatment. Study participants were randomized to receive at bedtime (10 pm) during the treatment period, one of the following: PLC only; Immediate Release LOR 10 mg, or Immediate Release CHL 4 mg/Immediate Release LOR 10 mg. Commercially available IR tablets of CHL and LOR were packaged into capsules and used in this study. Participants filled out patient diaries in the morning (8 am) and evening (10 pm, prior to dosing). Reflective and Instantaneous TNSSs were recorded daily. Pittsburgh Sleep Quality Index (PSQI) was scored at the end of the study.
Each symptom (rhinorrhea, nasal itching, sneezing) was scored on the following scale (Max Score=9):
0=absent symptoms (no sign/symptom evident);
1=mild symptoms (signs or symptoms clearly present but with minimal awareness, and easily tolerated);
2=moderate symptoms (definite awareness of signs or symptoms that are bothersome but tolerable); or
3=Severe symptoms (signs or symptoms that are hard to tolerate and cause interference with activities of daily living and/or sleeping).
At each time point (at 8 AM and 10 PM), symptoms were scored for Instantaneous and Reflective scores.
Inclusion criteria: male/female 18-60 years, history of seasonal allergic rhinitis for at least two years, sensitivity to ragweed or locally prevalent allergen, immunotherapy at stable dose, AM Reflective TNSS=3 on at least 5 out of 7 consecutive days during run-in.
Exclusion criteria: subjects with asthma other than mild intermittent asthma, use of antihistamines, other than study medication; use of systemic or topical corticosteroids, use of decongestants or antihistamines within 3 days of Visit 1, nasal cromolyn within 2 weeks of Visit 1, nasal or systemic corticosteroids within 28 days of Visit 1, loratadine within 10 days of Visit 1, history of sleep abnormalities, sinusitis, use of medications causing drowsiness/interfere with sleep, subjects with a known history of alcohol or drug abuse, and other standard exclusions.
2.3 Study Sites. The Study was conducted in Newport News, Va. (20 subjects), Richmond, Va. (20 subjects), New Braunfels, Tex. (25 subjects), San Antonio, Tex. (9 subjects).

allergic rhinitis = conditions: cited from earlier work
[2] = system: seasonal allergic rhinitis; conditions: cited from earlier work
[3] = system: seasonal allergic rhinitis; conditions: 4 mg three times per day (12 mg daily) for seven days; cited from earlier work
[4] = Baseline (1 week placebo run-in)
[5] = Change from Baseline to End-of-Treatment
[6] = End-of-Treatment, bedtime dosing

## CCOC(=O)N1CCC(=C2c3ccc(Cl)cc3CCc3cccnc32)CC1 [Loratadine]
[1]; [4]
  AM TNSS Instantaneous Score, Max: 7.71
  AM TNSS Instantaneous Score, Mean: 5.58
  AM TNSS Instantaneous Score, Median: 5.43
  AM TNSS Instantaneous Score, Min: 3.71
  AM TNSS Reflective Score, Max: 8.14
  AM TNSS Reflective Score, Mean: 5.91
  AM TNSS Reflective Score, Median: 5.07
  AM TNSS Reflective Score, Min: 5.00
  PM TNSS Instantaneous Score, Max: 8.83
  PM TNSS Instantaneous Score, Mean: 5.70
  PM TNSS Instantaneous Score, Median: 5.21
  PM TNSS Instantaneous Score, Min: 3.86
  PM TNSS Reflective Score, Max: 8.50
  PM TNSS Reflective Score, Mean: 6.10
  PM TNSS Reflective Score, Median: 5.59
  PM TNSS Reflective Score, Min: 4.57
[1]; [5]
  PM TNSS Reflective Score, Change, Max: 1.21
  PM TNSS Reflective Score, Change, Mean: −0.92
  PM TNSS Reflective Score, Change, Median: −0.21
  PM TNSS Reflective Score, Change, Min: −3.45
[1]; Change from Baseline to Week 2
  AM TNSS Instantaneous Score, Change, Max: 1.21
  AM TNSS Instantaneous Score, Change, Mean: −0.74
  AM TNSS Instantaneous Score, Change, Median: −0.83
  AM TNSS Instantaneous Score, Change, Min: −2.62
  AM TNSS Reflective Score, Change, Max: 1.29
  AM TNSS Reflective Score, Change, Mean: −0.82
  AM TNSS Reflective Score, Change, Median: −0.52
  AM TNSS Reflective Score, Change, Min: −2.79
  PM TNSS Instantaneous Score, Change, Max: 1.00
  PM TNSS Instantaneous Score, Change, Mean: −0.81
  PM TNSS Instantaneous Score, Change, Median: −0.21
  PM TNSS Instantaneous Score, Change, Min: −3.45
[1]; [6]
  PM TNSS Reflective Score, Max: 7.71
  PM TNSS Reflective Score, Mean: 5.18
  PM TNSS Reflective Score, Median: 5.29
  PM TNSS Reflective Score, Min: 2.14
[1]; Week 2, bedtime dosing
  AM TNSS Instantaneous Score, Max: 7.36
  AM TNSS Instantaneous Score, Mean: 4.83
  AM TNSS Instantaneous Score, Median: 5.16
  AM TNSS Instantaneous Score, Min: 2.14
  AM TNSS Reflective Score, Max: 7.43
  AM TNSS Reflective Score, Mean: 5.08
  AM TNSS Reflective Score, Median: 5.13
  AM TNSS Reflective Score, Min: 2.21
  PM TNSS Instantaneous Score, Max: 7.21
  PM TNSS Instantaneous Score, Mean: 4.89
  PM TNSS Instantaneous Score, Median: 5.32
  PM TNSS Instantaneous Score, Min: 2.15
Allergic rhinitis; 10 mg once a day
  24 hour efficacy: lack of 24 hour efficacy
Allergic rhinitis; loratadine 40 mg once daily
  patients with significant sedation: 34.3%
[2]; 10 mg QD for four weeks
  nocturnal symptoms: did not show any improvement
[2]; 10 mg QD, first two week period and four week study overall
  symptom scores: statistically significant reduction

## CN(C)CCC(c1ccc(Cl)cc1)c1ccccn1 (stereo not drawn) [chlorpheniramine, Chlorpheniramine maleate]
[3]
  patients reporting moderate or complete relief: 60%
  patients reporting sedation: 19%
